From US20260137698A1, “CYCLIN-DEPENDENT KINASE 7 INHIBITORS” (JOINT STOCK COMPANY «BIOCAD», priority 2022, published 2026) come the findings set out here.

One data set addresses CDK2/Cyclin A (Homo sapiens, UniProt P24941). Description: Inhibition of CDK2/Cyclin A kinase activity (ADP-Glo). In kind it is biochemical. The note with it: mean value from several measurements; read-out: IC50 CDK2/Cyclin A. How it is done: (§1) Measurements were carried out in a 5 μl reaction volume using a 384-well plate (Corning Inc., order no. 4513). The analyzed substances were titrated from 50 μM in increments of 4 at 11 concentration points in a normal strength kinase buffer A (Thermo Fisher Scientific Inc, cat. no. PV3189) supplemented with DTT (Sigma, orde. no. 646563-10X.5ML) and prepared with water (Panreac, order no. 701074). Kinase was diluted in an analogous buffer, mixed with test compounds in plate wells and preincubated for 10 minutes at 25° C. Following incubation, a mixture of reaction substrate (CDKtide (SignalChem, order no. C06-58) or Histone H1 (SignalChem, order no. H10-54N) or PDKtide (SignalChem, order no. P10-58) and ATP (SignalChem, order no. V915B) prepared on a normal strength kinase buffer A was added. 1% solution of dimethyl sulfoxide (DMSO) (Sigma-Aldrich, order no. D2438) in the reaction volume was used as a negative control. The final concentrations of all reaction components are shown in Table 5. The plate was centrifuged at 400 rcf (Eppendorf, 5804 R) for 1 minute and incubated for 40-60 minutes at 25° C. The amount of ATP consumed in the kinase reaction was then measured using the ADP-Glo™ detection system. Luminescence signal was measured using Spark 20M tablet multifunction reader (Tecan Group Ltd, Switzerland). IC50 value was calculated using Magellan 7.2 (Tecan Group Ltd, Switzerland) by approximating experimental points by four-parameter model with the optimization by Levenberg-Marquardt:
(§2) [formula] • where A is the upper asymptote; D is the lower asymptote; C is IC50, half-maximal inhibitory concentration of kinase, nM; B is the curvature (slope).

For a further data set, the target named is CDK9/Cyclin K (Homo sapiens, UniProt P50750). Briefly: Inhibition of CDK9/Cyclin K kinase activity (ADP-Glo). In kind it is biochemical. The conditions noted are these: mean value from several measurements; read-out: IC50 CDK9/Cyclin K. On the procedure:
as §1, §2
For orientation: ADP-Glo turns the ADP formed in a reaction into a luminescent signal.

In another data set the target is CDK7/Cyclin H/MNAT1 (Homo sapiens, UniProt P50613). Description: Inhibition of CDK7/Cyclin H/MNAT1 kinase activity (ADP-Glo). In kind it is biochemical. The note with it: mean value from several measurements; read-out: IC50 CDK7/Cyclin H/MNAT. On the procedure: as §1, §2
Sequence of CDK7/Cyclin H/MNAT1 (P50613 whole entry): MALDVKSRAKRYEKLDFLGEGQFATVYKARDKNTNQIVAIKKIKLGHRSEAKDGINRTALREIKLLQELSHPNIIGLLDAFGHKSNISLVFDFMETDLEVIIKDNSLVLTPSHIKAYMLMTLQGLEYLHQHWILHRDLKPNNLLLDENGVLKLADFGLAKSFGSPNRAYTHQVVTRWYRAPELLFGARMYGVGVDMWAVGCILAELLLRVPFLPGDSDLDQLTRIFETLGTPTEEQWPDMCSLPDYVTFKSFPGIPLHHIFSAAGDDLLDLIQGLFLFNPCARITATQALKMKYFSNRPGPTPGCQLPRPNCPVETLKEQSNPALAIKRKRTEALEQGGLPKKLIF
Sequence of CDK7/Cyclin H/MNAT1 (P51946 whole entry partner): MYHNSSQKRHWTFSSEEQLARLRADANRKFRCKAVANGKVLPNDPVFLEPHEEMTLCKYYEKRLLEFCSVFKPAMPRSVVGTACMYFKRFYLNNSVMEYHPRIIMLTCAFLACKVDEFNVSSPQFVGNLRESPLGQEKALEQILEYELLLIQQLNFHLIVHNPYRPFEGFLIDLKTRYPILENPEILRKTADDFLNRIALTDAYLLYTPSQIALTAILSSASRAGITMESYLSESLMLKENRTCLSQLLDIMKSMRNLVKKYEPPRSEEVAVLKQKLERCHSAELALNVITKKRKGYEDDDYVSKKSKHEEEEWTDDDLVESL
Sequence of CDK7/Cyclin H/MNAT1 (P51948 whole entry partner): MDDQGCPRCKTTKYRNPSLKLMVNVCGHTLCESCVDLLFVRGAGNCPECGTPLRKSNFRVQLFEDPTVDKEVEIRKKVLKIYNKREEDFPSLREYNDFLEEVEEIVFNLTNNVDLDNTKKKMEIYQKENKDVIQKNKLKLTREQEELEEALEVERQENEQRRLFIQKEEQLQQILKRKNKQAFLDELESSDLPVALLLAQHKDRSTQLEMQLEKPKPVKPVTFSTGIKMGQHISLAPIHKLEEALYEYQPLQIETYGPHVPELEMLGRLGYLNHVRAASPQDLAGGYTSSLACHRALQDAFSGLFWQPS
Data set [1] in a line: General cytotoxicity on primary differentiated HepaRG cells (72 h). The note with it: human, general toxicity, mean value from several measurements. In kind it is cell-based. An excerpt:
General cytotoxicity of CDK7 inhibitors according to the present invention was investigated using primary differentiated HepaRG cells (Biopredic Int, order no. HPR101). A week before the measurement, the cells were thawed and maintained in Basal hepatic cell medium (Biopredic Int, order no. MIL700079) supplemented with HepaRG maintenance/metabolism medium supplement with antibiotics (Biopredic Int, order no. ADD620C). The medium in vials with cells was changed every 2-3 days. The night before the test, the cells were plated in wells of 96-well plates (Corning Inc., order no. 3599) at 25×10^3 cells in 100 μl of medium per well. The next day, test compounds were introduced into plate wells with cells, untitrated at a concentration ranging from 200 μM to 0.2 nM, and incubated for 72 hours. Cell viability was assessed as described above.

The subject of data set [2] is MDA-MB-468 (triple negative breast cancer). Briefly: Antiproliferative assay on MDA-MB-468 cells (AlamarBlue, 96 h). The note with it: Homo sapiens, mean value from several measurements. Type of data set: cell-based. On the procedure:
The antiproliferative activity of CDK7 inhibitors according to the present invention was evaluated in a cell test using continuous cell cultures: MDA-MB-468 (triple negative breast cancer, ATCC® HTB-132™) and NCl-H82 (small cell lung cancer, ATCC® HTB-175™) using a viable AlamarBlue dye (Thermo Fisher Scientific Inc, order no. DAL1100). The cells were grown in DMEM (PanEco, order no. C330π) and RPMI-1640 (PanEco, order no. C330π), respectively. The basal growth medium was enriched with L-glutamine at a concentration of 2 mM (PanEco, order no. Φ032) and 10% fetal bovine serum (Gibco, order no. 16140-071). The night before measurement, MDA-MB-468 adherent cells were detached from plastic with a solution of trypsin-EDTA (PanEco, order no. Π039π), the solution was then inactivated by a DMEM complete medium, centrifuged at 1000 RPM (Eppendorf, 5804 R), a suspension of cells was prepared in a DMEM complete medium, introduced into 96-well culture plates (Corning Inc, order no. 3599) at 8×10^3 cells in 100 μl of medium per well. The next day, test compounds were dissolved in DMSO and diluted with a DMEM complete medium to a final concentration ranging from 50 μM to 10 pM. Diluted compounds in a volume of 50 μl were introduced into the plate wells with cells in triplicates (the final concentration of DMSO was no more than 1%) and incubated at 37° C. in an incubator with 5% CO2 for 96 hours. NCl-H82 suspension cell line was prepared on the day of the analysis. 10×10^3 cells in 100 μl of an RPMI-1640 complete medium were added to each well of a 96-well plate. The procedure for sample dilution is as described above. Cells with test compounds were incubated at 37° C. in an incubator with 5% CO2 for 120 hours. Following incubation, […] of AlamarBlue reagent (Thermo Fisher Scientific Inc., order no. DAL1100) was added to the wells, the contents of the plates were stirred in an orbital shaker (Biosan, Latvia), then further incubated for 5.5-6 hours at 37° C. in an incubator with 5% CO2. The number of viable cells was detected using the Infinite M200Pro microplate spectrophotometer (Tecan Group Ltd, Switzerland) by way of measuring a fluorescent signal at an excitation wavelength (λEx) of 540 nm and an emission wavelength (λEm) of 590 nm.
IC50 value was calculated using the Magellan software (Tecan Group Ltd, Switzerland) by approximating experimental points by four-parameter model with the optimization by Levenberg-Marquardt: […]
Background: Resazurin is reduced to fluorescent resorufin, in cell work by metabolically active cells.

Where only a bound is given, the exact number is not on record here.

Broadly, the CC50 is the concentration at which the toxic effect on the cells reaches its halfway point.

Sequence of CDK9/Cyclin K (P50750 whole entry): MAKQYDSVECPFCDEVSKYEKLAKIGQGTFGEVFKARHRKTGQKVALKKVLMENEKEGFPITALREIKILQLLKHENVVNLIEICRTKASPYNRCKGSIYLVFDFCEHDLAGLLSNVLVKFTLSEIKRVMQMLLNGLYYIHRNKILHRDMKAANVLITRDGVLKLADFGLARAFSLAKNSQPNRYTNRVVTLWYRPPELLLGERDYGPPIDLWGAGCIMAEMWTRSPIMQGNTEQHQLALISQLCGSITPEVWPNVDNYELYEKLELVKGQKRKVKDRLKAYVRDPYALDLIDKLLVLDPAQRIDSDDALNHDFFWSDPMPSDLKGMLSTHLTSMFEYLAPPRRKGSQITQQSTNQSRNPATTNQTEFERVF
Sequence of CDK9/Cyclin K (O75909 whole entry partner): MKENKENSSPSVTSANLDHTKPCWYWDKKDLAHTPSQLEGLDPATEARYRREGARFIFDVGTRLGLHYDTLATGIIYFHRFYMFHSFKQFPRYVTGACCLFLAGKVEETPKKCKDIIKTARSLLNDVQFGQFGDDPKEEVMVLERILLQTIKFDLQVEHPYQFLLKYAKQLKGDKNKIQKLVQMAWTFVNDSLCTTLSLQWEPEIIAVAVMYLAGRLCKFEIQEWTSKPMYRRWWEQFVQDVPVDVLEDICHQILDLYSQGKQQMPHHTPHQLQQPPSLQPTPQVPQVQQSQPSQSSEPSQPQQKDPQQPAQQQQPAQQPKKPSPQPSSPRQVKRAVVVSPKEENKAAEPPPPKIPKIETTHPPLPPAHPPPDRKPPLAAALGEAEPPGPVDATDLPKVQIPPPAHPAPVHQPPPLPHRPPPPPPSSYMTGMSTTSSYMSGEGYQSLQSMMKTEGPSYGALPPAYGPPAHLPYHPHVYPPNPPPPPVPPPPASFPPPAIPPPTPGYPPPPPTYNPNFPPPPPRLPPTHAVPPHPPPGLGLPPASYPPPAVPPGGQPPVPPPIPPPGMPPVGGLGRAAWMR

With `CS(=O)(=O)CCNC(=O)c1cc(-c2nc(N[C@H]3CCCNC3)ncc2C(F)(F)F)c[nH]1` [CDK7_848, N-(2-methanesulfon-ylethyl)-4-(2-{[(3S)-piperidin-3-yl]amino}-5-(trifluoromethyl)pyrimidin-4-yl)-1H-pyrrole-2-carboxamide], the IC50 on CDK2/Cyclin A is above 0.2 µM; on CDK9/Cyclin K, 0.005 to 0.05 µM; at CDK7/Cyclin H/MNAT1, 0.005 to 0.05 µM; in data set [2], above 1 µM. Besides, the CC50 at 72 h in data set [1] was above 2 µM.

Take `O=C(NCc1ccccc1)c1cc(-c2nc(N[C@H]3CCCNC3)ncc2C(F)(F)F)c[nH]1` [CDK7_997, N-benzyl-4-(2-{[(3S)-piperidin-3-yl]amino}-5-(trifluoromethyl)pyrimidin-4-yl)-1H-pyrrole-2-carboxamide]: the IC50 was above 0.2 µM at CDK2/Cyclin A, 0.05 to 0.2 µM at CDK9/Cyclin K, 0.005 to 0.05 µM at CDK7/Cyclin H/MNAT1 and 0.1 to 1 µM in data set [2]. This compound also yielded a CC50 at 72 h in data set [1] of 0.5 to 2 µM.

In the case of `O=C(Nc1ncc[nH]1)c1cc(-c2nc(N[C@H]3CCCNC3)ncc2C(F)(F)F)c[nH]1` [CDK7_833, N-(1H-imidazol-2-yl)-4-(2-{[(3S)-piperidin-3-yl]amino}-5-(trifluoromethyl)pyrimidin-4-yl)-1H-pyrrole-2-carboxamide], the IC50 at CDK2/Cyclin A was above 0.2 µM; at CDK9/Cyclin K it was 0.05 to 0.2 µM; at CDK7/Cyclin H/MNAT1 it was 0.005 to 0.05 µM; in data set [2], 0.1 to 1 µM. Moreover, the CC50 at 72 h in data set [1] was in the range of 0.5 to 2 µM.

For `N#Cc1ccc(NC(=O)c2cc(-c3nc(N[C@H]4CCCNC4)ncc3C(F)(F)F)c[nH]2)cc1` [CDK7_837, N-(4-cyanophenyl)-4-(2-{[(3S)-piperidin-3-yl]amino}-5-(trifluoromethyl)pyrimidin-4-yl)-1H-pyrrole-2-carboxamide], the IC50 on CDK2/Cyclin A was above 0.2 µM; on CDK9/Cyclin K, above 0.2 µM; on CDK7/Cyclin H/MNAT1, 0.05 to 0.2 µM; in data set [2], 0.1 to 1 µM. For the same compound, the CC50 at 72 h in data set [1] fell in the range of 0.5 to 2 µM.

Consider `FC(F)(F)c1cnc(N[C@H]2CCCNC2)nc1-c1cc[nH]c1` [CDK7_972, N-[(3S)-piperidin-3-yl]-4-(1H-pyrrol-3-yl)-5-(trifluoromethyl)py-rimidin-2-amine], for which the IC50 is above 0.2 µM at CDK2/Cyclin A, 0.05 to 0.2 µM on CDK9/Cyclin K, 0.005 to 0.05 µM on CDK7/Cyclin H/MNAT1 and 0.1 to 1 µM in data set [2]. In data set [1], this compound showed a CC50 at 72 h of 0.5 to 2 µM.

For `O=C(c1ccccc1)c1cc(-c2nc(N[C@H]3CCCNC3)ncc2C(F)(F)F)c[nH]1` [CDK7_535, 4-(5-benzoyl-1H-pyrrol-3-yl)-N-[(3S)-piperidin-3-yl]-5-(trifluoromethyl) pyrimidin-2-amine], the IC50 at CDK2/Cyclin A is above 0.2 µM; on CDK9/Cyclin K it was 0.05 to 0.2 µM; on CDK7/Cyclin H/MNAT1, 0.005 to 0.05 µM; in data set [2] it was 0.1 to 1 µM. In addition, in data set [1], the CC50 at 72 h is above 2 µM.

For the compound `CNC(=O)c1cc(-c2nc(N[C@H]3CCCNC3)ncc2C(F)(F)F)c[nH]1` [CDK7_846, N-methyl-4-(2-{[(3S)-piperidin-3-yl]amino}-5-(trifluoromethyl)pyrimidin-4-yl)-1H-pyrrole-2-carboxamide], the IC50 on CDK2/Cyclin A was above 0.2 µM; on CDK9/Cyclin K it was 0.005 to 0.05 µM; on CDK7/Cyclin H/MNAT1, 0.005 to 0.05 µM; in data set [2] it was 0.01 to 0.1 µM. Besides, in data set [1], the CC50 at 72 h fell in the range of 0.5 to 2 µM.

As to `O=C(c1cc(-c2nc(N[C@H]3CCCNC3)ncc2C(F)(F)F)c[nH]1)N1CCOCC1` [CDK7_849, 4-[5-(morpholine-4-carbonyl)-1H-pyrrol-3-yl]-N-[(3S)-piperidin-3-yl]-5-(trifluoromethyl) pyrimidin-2-amine], the IC50 at CDK2/Cyclin A was above 0.2 µM; on CDK9/Cyclin K it was 0.05 to 0.2 µM; on CDK7/Cyclin H/MNAT1, below 0.005 µM; in data set [2] it was 0.01 to 0.1 µM. In data set [1], this compound registered a half-maximal cytotoxic concentration (CC50) at 72 h of 0.5 to 2 µM.

As for `CN(Cc1ccccc1)C(=O)c1cc(-c2nc(N[C@H]3CCCNC3)ncc2C(F)(F)F)c[nH]1` [CDK7_998, N-benzyl-N-methyl-4-(2-{[(3S)-piperidin-3-yl]amino}-5-(trifluoromethyl)pyrimidin-4-yl)-1H-pyrrole-2-carboxamide], the IC50 at CDK2/Cyclin A is above 0.2 µM; at CDK9/Cyclin K it was above 0.2 µM; on CDK7/Cyclin H/MNAT1, 0.005 to 0.05 µM; in data set [2], above 1 µM. This compound showed a 50% cytotoxic concentration (CC50) at 72 h in data set [1] above 2 µM.

Turning to `CN(C(=O)c1cc(-c2nc(N[C@H]3CCCNC3)ncc2C(F)(F)F)c[nH]1)C1CC1` [CDK7_1001, N-cyclopropyl-N-methyl-4-(2-{[(3S)-piperidin-3-yl]amino}-5-(trifluoromethyl)pyrimidin-4-yl)-1H-pyrrole-2-carboxamide], the IC50 at CDK2/Cyclin A was above 0.2 µM; at CDK9/Cyclin K, 0.005 to 0.05 µM; on CDK7/Cyclin H/MNAT1, below 0.005 µM; in data set [2], 0.1 to 1 µM. In data set [1], the CC50 at 72 h is 0.5 to 2 µM.

For `CN(C)C(=O)c1nc(-c2nc(N[C@H]3CCCNC3)ncc2C(F)(F)F)c[nH]1` [CDK7_966, N,N-dimethyl-4-(2-{[(3S)-piperidin-3-yl]amino}-5-(trifluoromethyl)py-rimidin-4-yl)-1H-imidazole-2-carboxamide], the IC50 on CDK2/Cyclin A was above 0.2 µM; on CDK9/Cyclin K, above 0.2 µM; at CDK7/Cyclin H/MNAT1, 0.005 to 0.05 µM; in data set [2], 0.1 to 1 µM. Further, the CC50 at 72 h in data set [1] was above 2 µM.

Take `CN(C(=O)c1cc(-c2nc(N[C@H]3CCCNC3)ncc2C(F)(F)F)c[nH]1)c1nccs1` [CDK7_1003, N-methyl-4-(2-{[(3S)-piperidin-3-yl]amino}-5-(trifluoromethyl)pyrimidin-4-yl)-N-(1,3-thiazol-2-yl)-1H-pyrrole-2-carboxamide]: the IC50 at CDK2/Cyclin A is above 0.2 µM; on CDK9/Cyclin K it was 0.05 to 0.2 µM; on CDK7/Cyclin H/MNAT1, 0.005 to 0.05 µM; in data set [2], 0.1 to 1 µM. The same compound gave a CC50 at 72 h in data set [1] of 0.5 to 2 µM.

Turning to `NC(=O)c1cc(-c2nc(N[C@H]3CCCNC3)ncc2C(F)(F)F)c[nH]1` [CDK7_537, 4-(2-{[(3S)-piperidin-3-yl]amino}-5-(trifluoromethyl)pyrimidin-4-yl)-1H-pyrrole-2-carboxamide], the IC50 at CDK2/Cyclin A was above 0.2 µM; on CDK9/Cyclin K it was 0.005 to 0.05 µM; at CDK7/Cyclin H/MNAT1 it was 0.005 to 0.05 µM; in data set [2], 0.1 to 1 µM. This compound also yielded a CC50 at 72 h in data set [1] of 0.1 to 0.5 µM.
